Reference: PubChem BioAssay (NCI)
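Cells were grown in 96-well plates and exposed to each compound for 48 hours at five concentrations; endpoints were interpolated linearly between bracketing concentrations, or set to the highest concentration if not reached. TGI: concentration producing complete growth inhibition.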

Legend:
Assay in all cases: NCI anticancer screen, dose series, 48 h
SF-539 CNS = tested on: SF-539 CNS
HOP-62 NSCLC = tested on: HOP-62 NSCLC
786-0 renal = tested on: 786-0 renal
NCI/ADR-RES ovarian = tested on: NCI/ADR-RES ovarian
SW-620 colon = tested on: SW-620 colon
SN12C renal = tested on: SN12C renal
MOLT-4 leukemia = tested on: MOLT-4 leukemia
RPMI-8226 leukemia = tested on: RPMI-8226 leukemia
SK-MEL-2 melanoma = tested on: SK-MEL-2 melanoma
MALME-3M melanoma = tested on: MALME-3M melanoma
A498 renal = tested on: A498 renal
OVCAR-4 ovarian = tested on: OVCAR-4 ovarian
HT29 colon = tested on: HT29 colon
SR leukemia = tested on: SR leukemia
CAKI-1 renal = tested on: CAKI-1 renal
SNB-75 CNS = tested on: SNB-75 CNS
HS 578T breast = tested on: HS 578T breast
OVCAR-3 ovarian = tested on: OVCAR-3 ovarian
HCC-2998 colon = tested on: HCC-2998 colon
PC-3 prostate = tested on: PC-3 prostate
HCT-15 colon = tested on: HCT-15 colon
T-47D breast = tested on: T-47D breast
MCF7 breast = tested on: MCF7 breast
LOX IMVI melanoma = tested on: LOX IMVI melanoma
MDA-N = tested on: MDA-N
UACC-62 melanoma = tested on: UACC-62 melanoma
SK-MEL-5 melanoma = tested on: SK-MEL-5 melanoma
KM12 colon = tested on: KM12 colon
BT-549 breast = tested on: BT-549 breast
SK-OV-3 ovarian = tested on: SK-OV-3 ovarian
HCT-116 colon = tested on: HCT-116 colon
MDA-MB-231 breast = tested on: MDA-MB-231 breast
IGROV1 ovarian = tested on: IGROV1 ovarian
SF-268 CNS = tested on: SF-268 CNS
NCI-H460 lung = tested on: NCI-H460 lung
HOP-92 NSCLC = tested on: HOP-92 NSCLC
U251 CNS = tested on: U251 CNS
NCI-H226 lung = tested on: NCI-H226 lung
OVCAR-5 ovarian = tested on: OVCAR-5 ovarian
OVCAR-8 ovarian = tested on: OVCAR-8 ovarian
M14 melanoma = tested on: M14 melanoma
MDA-MB-435 = tested on: MDA-MB-435
K-562 leukemia = tested on: K-562 leukemia
UO-31 renal = tested on: UO-31 renal
RXF 393 renal = tested on: RXF 393 renal
SK-MEL-28 melanoma = tested on: SK-MEL-28 melanoma
SNB-19 CNS = tested on: SNB-19 CNS
CCRF-CEM leukemia = tested on: CCRF-CEM leukemia
UACC-257 melanoma = tested on: UACC-257 melanoma
DU-145 prostate = tested on: DU-145 prostate
TK-10 renal = tested on: TK-10 renal
NCI-H23 lung = tested on: NCI-H23 lung
A549 NSCLC = tested on: A549 NSCLC
SF-295 CNS = tested on: SF-295 CNS
COLO 205 colon = tested on: COLO 205 colon
EKVX NSCLC = tested on: EKVX NSCLC
NCI-H522 lung = tested on: NCI-H522 lung
ACHN renal = tested on: ACHN renal
HL-60(TB) leukemia = tested on: HL-60(TB) leukemia

In the case of `CCCC1NC(=O)C(CC(C)C)NC(=O)c2cccc(n2)C(=O)NC(CC(C)C)C(=O)NC(CCC)C(=O)NC(C(=O)OC)CCCCNC1=O` (stereo not drawn), the TGI (SF-539 CNS) was 45.1 µM, the TGI (HOP-62 NSCLC) was greater than 100 µM and the TGI (786-0 renal) was greater than 100 µM. It also gave a TGI (NCI/ADR-RES ovarian) greater than 100 µM, a TGI (SW-620 colon) greater than 100 µM and a TGI (SN12C renal) greater than 100 µM. The TGI (MOLT-4 leukemia) was 44.8 µM, the TGI (RPMI-8226 leukemia) was 32 µM and the TGI (SK-MEL-2 melanoma) was greater than 100 µM. For the same molecule, the TGI (MALME-3M melanoma) was 62.8 µM, the TGI (A498 renal) was greater than 100 µM and the TGI (OVCAR-4 ovarian) was greater than 100 µM. The TGI (HT29 colon) was 94.5 µM, the TGI (SR leukemia) was 65.6 µM and the TGI (CAKI-1 renal) was greater than 100 µM. For the same molecule, the TGI (SNB-75 CNS) was 57.7 µM, the TGI (HS 578T breast) was greater than 100 µM and the TGI (OVCAR-3 ovarian) was greater than 100 µM. It also gave a TGI (HCC-2998 colon) of 41.7 µM, a TGI (PC-3 prostate) of 91.3 µM and a TGI (HCT-15 colon) greater than 100 µM. For the same molecule, the TGI (T-47D breast) was greater than 100 µM, the TGI (MCF7 breast) was greater than 100 µM and the TGI (LOX IMVI melanoma) was 44.4 µM. It also gave a TGI (MDA-N) greater than 100 µM, a TGI (UACC-62 melanoma) of 51.5 µM and a TGI (SK-MEL-5 melanoma) greater than 100 µM. For the same molecule, the TGI (KM12 colon) was 59.3 µM, the TGI (BT-549 breast) was 76 µM and the TGI (SK-OV-3 ovarian) was 91.5 µM. The TGI (HCT-116 colon) was greater than 100 µM, the TGI (MDA-MB-231 breast) was 48.9 µM and the TGI (IGROV1 ovarian) was greater than 100 µM. It also gave a TGI (SF-268 CNS) greater than 100 µM, a TGI (NCI-H460 lung) greater than 100 µM and a TGI (HOP-92 NSCLC) of 65.9 µM. It also gave a TGI (U251 CNS) greater than 100 µM, a TGI (NCI-H226 lung) of 71.4 µM and a TGI (OVCAR-5 ovarian) greater than 100 µM. It also gave a TGI (OVCAR-8 ovarian) greater than 100 µM, a TGI (M14 melanoma) greater than 100 µM and a TGI (MDA-MB-435) greater than 100 µM. The TGI (K-562 leukemia) was 53.7 µM, the TGI (UO-31 renal) was greater than 100 µM and the TGI (RXF 393 renal) was greater than 100 µM. For the same molecule, the TGI (SK-MEL-28 melanoma) was 78.9 µM, the TGI (SNB-19 CNS) was greater than 100 µM and the TGI (CCRF-CEM leukemia) was 36.6 µM. It also gave a TGI (UACC-257 melanoma) greater than 100 µM, a TGI (DU-145 prostate) greater than 100 µM and a TGI (TK-10 renal) greater than 100 µM. It also gave a TGI (NCI-H23 lung) greater than 100 µM, a TGI (A549 NSCLC) greater than 100 µM and a TGI (SF-295 CNS) greater than 100 µM. For the same molecule, the TGI (COLO 205 colon) was greater than 100 µM and the TGI (EKVX NSCLC) was 90.9 µM.

In the case of `CCOP(=O)(OCC)C(NC(=O)OCC(Cl)(Cl)Cl)n1nnc(C(=O)OC)c1C(=O)OC` (stereo not drawn), the TGI (SF-539 CNS) was greater than 100 µM, the TGI (HOP-62 NSCLC) was greater than 100 µM and the TGI (786-0 renal) was greater than 100 µM. It also gave a TGI (NCI/ADR-RES ovarian) greater than 100 µM, a TGI (SW-620 colon) greater than 100 µM and a TGI (NCI-H522 lung) greater than 100 µM. It also gave a TGI (MOLT-4 leukemia) greater than 100 µM, a TGI (ACHN renal) greater than 100 µM and a TGI (RPMI-8226 leukemia) greater than 100 µM. For the same molecule, the TGI (SK-MEL-2 melanoma) was greater than 100 µM, the TGI (MALME-3M melanoma) was greater than 100 µM and the TGI (A498 renal) was greater than 100 µM. The TGI (OVCAR-4 ovarian) was greater than 100 µM, the TGI (HT29 colon) was greater than 100 µM and the TGI (SR leukemia) was greater than 100 µM. For the same molecule, the TGI (CAKI-1 renal) was greater than 100 µM, the TGI (SNB-75 CNS) was greater than 100 µM and the TGI (HS 578T breast) was greater than 100 µM. It also gave a TGI (OVCAR-3 ovarian) greater than 100 µM, a TGI (HCC-2998 colon) greater than 100 µM and a TGI (PC-3 prostate) greater than 100 µM. It also gave a TGI (HCT-15 colon) greater than 100 µM, a TGI (T-47D breast) greater than 100 µM and a TGI (MCF7 breast) greater than 100 µM. It also gave a TGI (LOX IMVI melanoma) greater than 100 µM, a TGI (MDA-N) greater than 100 µM and a TGI (UACC-62 melanoma) greater than 100 µM. The TGI (SK-MEL-5 melanoma) was greater than 100 µM, the TGI (KM12 colon) was greater than 100 µM and the TGI (HL-60(TB) leukemia) was greater than 100 µM. It also gave a TGI (BT-549 breast) greater than 100 µM, a TGI (SK-OV-3 ovarian) greater than 100 µM and a TGI (HCT-116 colon) greater than 100 µM. It also gave a TGI (MDA-MB-231 breast) greater than 100 µM, a TGI (IGROV1 ovarian) greater than 100 µM and a TGI (SF-268 CNS) greater than 100 µM. For the same molecule, the TGI (NCI-H460 lung) was greater than 100 µM, the TGI (HOP-92 NSCLC) was greater than 100 µM and the TGI (U251 CNS) was greater than 100 µM. For the same molecule, the TGI (NCI-H226 lung) was greater than 100 µM, the TGI (OVCAR-8 ovarian) was greater than 100 µM and the TGI (M14 melanoma) was greater than 100 µM. For the same molecule, the TGI (MDA-MB-435) was greater than 100 µM, the TGI (K-562 leukemia) was greater than 100 µM and the TGI (UO-31 renal) was greater than 100 µM. The TGI (RXF 393 renal) was greater than 100 µM, the TGI (SK-MEL-28 melanoma) was greater than 100 µM and the TGI (SNB-19 CNS) was greater than 100 µM. It also gave a TGI (CCRF-CEM leukemia) greater than 100 µM, a TGI (UACC-257 melanoma) greater than 100 µM and a TGI (DU-145 prostate) greater than 100 µM. It also gave a TGI (TK-10 renal) greater than 100 µM, a TGI (NCI-H23 lung) greater than 100 µM and a TGI (A549 NSCLC) greater than 100 µM. The TGI (SF-295 CNS) was greater than 100 µM, the TGI (COLO 205 colon) was greater than 100 µM and the TGI (EKVX NSCLC) was greater than 100 µM.
